pIC50: −log10 of the molar value.
target: Menin/MLL-4-43 peptide interaction (Homo sapiens (Human), UniProt O00255); experiment: Menin-MLL interaction inhibitory activity assay (fluorescence polarization competition); assay type: binding; details: FITC-MLL4-43-peptide, Menin recombinant protein
Procedure: Test Example 1: Menin-MLL Interaction Inhibitory Activity Assay
The inhibition of Menin/MLL-4-43 peptide interaction by small molecule inhibitors was quantitatively detected by fluorescence polarization competition assay. The experiment was performed in a 384-well plate (Corning, Cat #3575) using a reaction buffer consisting of 50 mM Tris, pH 7.5, 50 mM NaCl, and 1 mM DTT. A 40 μL reaction system included 10 μL of 8 nM Menin recombinant protein and 10 μL of the test compound at different concentrations. The compound was pre-incubated with Menin protein for 15 min, and then 20 μL of 10 nM FITC-MLL4-43-peptide was added. After incubation on a shaker at 25° C. for 60 min, the fluorescence polarization signal (FP 485 520 520) was read using BMG PHERAStar detection. The experimental data was analyzed and processed by GraphPad Prism 6 software to obtain the IC50 value. The control compound 1 was prepared by referring to the method of Example 64 in WO2017214367.

Menin/MLL-4-43 peptide interaction, sequence (O00255 whole entry, species assumed): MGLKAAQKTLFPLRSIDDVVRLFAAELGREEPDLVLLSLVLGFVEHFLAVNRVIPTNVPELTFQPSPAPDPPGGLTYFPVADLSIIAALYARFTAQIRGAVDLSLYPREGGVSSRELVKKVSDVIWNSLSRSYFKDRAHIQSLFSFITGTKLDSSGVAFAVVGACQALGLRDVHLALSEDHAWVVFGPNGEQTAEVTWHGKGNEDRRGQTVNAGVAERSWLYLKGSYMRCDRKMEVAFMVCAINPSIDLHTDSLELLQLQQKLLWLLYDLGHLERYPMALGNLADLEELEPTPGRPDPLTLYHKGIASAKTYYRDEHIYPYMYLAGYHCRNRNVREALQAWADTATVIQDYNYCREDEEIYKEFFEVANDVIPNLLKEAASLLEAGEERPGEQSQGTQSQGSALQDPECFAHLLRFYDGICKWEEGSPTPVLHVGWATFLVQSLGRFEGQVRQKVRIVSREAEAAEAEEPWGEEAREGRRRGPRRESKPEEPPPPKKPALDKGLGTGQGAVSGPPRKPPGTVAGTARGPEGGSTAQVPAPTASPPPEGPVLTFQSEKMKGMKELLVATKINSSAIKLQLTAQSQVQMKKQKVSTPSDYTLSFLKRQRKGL

Q: With `CC(C)N(C(=O)c1cc(F)ccc1Oc1nncnc1N1CC2(CCN(CC3CCC4(CC3)CC3(CC3)C(=O)N4)CC2)C1)C(C)C` (single isomer, unassigned) [Example 44-2] as the molecule, how does the pIC50 read?
A: 8.10

Q: `CCN(C(=O)c1cc(F)ccc1Oc1cncnc1N1CC2(CCN(CC3CC4CCC3CC43COC(=O)N3)CC2)C1)C(C)C` (single isomer, unassigned) [Example 50-1b] was tested. Which pIC50 did it give?
A: 7.66

Q: How did the pIC50 turn out when `CCN(C(=O)c1cc(F)ccc1Oc1cncnc1N1CC2(CCN(CC3CC4CCC3CC43COC(=O)N3)CC2)C1)C(C)C` (single isomer, unassigned) [Example 50-2a] was run?
A: 7.68

Q: With `CCN(C(=O)c1cc(F)ccc1Oc1cncnc1N1CC2(CCN(CC3CC4CCC3CC43COC(=O)N3)CC2)C1)C(C)C` (single isomer, unassigned) [Example 50-2b] as the molecule, how does the pIC50 read?
A: 7.21

Q: With `CC(C)N(C(=O)c1cc(F)ccc1Oc1cncnc1N1CC2(CCN(CC3CC4CCC3CC43COC(=O)N3)CC2)C1)C(C)C` (single isomer, unassigned) [Example 51-1] as the molecule, how does the pIC50 read?
A: 7.45

tested on: OCI-AML3; experiment: Cell proliferation inhibition (CellTiter-Glo), OCI-AML3 (NPM1 mutation); assay type: cell-based; details: Homo sapiens, OCI-AML-3, 168 h, OCI-AML3 cells
Procedure: (§1) Test Example 2: Test of the Inhibitory Ability of Menin-MLL Interaction Inhibitors on Cell Proliferation
(§2) The inhibitory ability of the compounds of the present disclosure on the proliferation of tumor cell lines (including cell lines containing MLL fusion protein such as MV4-11, MOLM-13, THP-1 and NOMO-1, control cell lines without MLL fusion protein such as HL-60, K562 and MOLM-16, and cell lines containing NPM1 mutation such as OCI-AML3) was evaluated by using the cell viability analysis method. The cells were plated in 96-well plates at a certain concentration (e.g., 5,000-20,000 cells/well), and then an equal volume of culture medium containing 2 times the final concentration of the test compound (the final concentration ranging 10 from 1 nM to 10 μM) was added. The plates were placed in an incubator and cultured at 37° C. and 5% CO2 for 72-168 h. Before the test, an equal volume of CellTiter-Glo® Luminescent reagent was added, and the plate was incubated at room temperature for 10 min before detection using an ELISA reader (BMG LABTECH). The data were analyzed using GraphPad Prism software to obtain the IC50 value and compound fitting curve. The control compound 1 was prepared by referring to the method of Example 64 in WO2017214367.

Q: `CC(C)N(C(=O)c1cc(F)ccc1Oc1cncnc1N1CC2(CCN(CC3CC4CCC3CC43COC(=O)N3)CC2)C1)C(C)C` (single isomer, unassigned) [Example 51-1] was tested. Which GI50 did it give?
A: 68.5 nM

same assay, conditions: OCI-AML3 cells, 168 h

Q: For `CC(C)N(C(=O)c1cc(F)ccc1Oc1nncnc1N1CC2(CCN(CC3CCC4(CC3)CC3(CC3)C(=O)N4)CC2)C1)C(C)C` (single isomer, unassigned) [Example 44-2], which GI50 is on record?
A: 26.4 nM

Q: Which GI50 does the source give for `CCN(C(=O)c1cc(F)ccc1Oc1cncnc1N1CC2(CCN(CC3CC4CCC3CC43COC(=O)N3)CC2)C1)C(C)C` (single isomer, unassigned) [Example 50-1b] here?
A: 61.7 nM

Q: How did the GI50 turn out when `CCN(C(=O)c1cc(F)ccc1Oc1cncnc1N1CC2(CCN(CC3CC4CCC3CC43COC(=O)N3)CC2)C1)C(C)C` (single isomer, unassigned) [Example 50-2a] was run?
A: 56.4 nM

Q: `CCN(C(=O)c1cc(F)ccc1Oc1cncnc1N1CC2(CCN(CC3CC4CCC3CC43COC(=O)N3)CC2)C1)C(C)C` (single isomer, unassigned) [Example 50-2b] was tested. Which GI50 did it give?
A: 119 nM

tested on: MV4-11; experiment: Cell proliferation inhibition (CellTiter-Glo), MV4-11; assay type: cell-based; details: Homo sapiens, MV4-11, 72 h, MV4-11 cells
Procedure: as §1, §2

Q: How did the GI50 turn out when `CCN(C(=O)c1cc(F)ccc1Oc1cncnc1N1CC2(CCN(CC3CC4CCC3CC43COC(=O)N3)CC2)C1)C(C)C` (single isomer, unassigned) [Example 50-1b] was run?
A: 26.4 nM

Q: Which GI50 does the source give for `CC(C)N(C(=O)c1cc(F)ccc1Oc1cncnc1N1CC2(CCN(CC3CC4CCC3CC43COC(=O)N3)CC2)C1)C(C)C` (single isomer, unassigned) [Example 51-1] here?
A: 21.1 nM

same assay, conditions: MV4-11 cells, 72 h

Q: How did the GI50 turn out when `CC(C)N(C(=O)c1cc(F)ccc1Oc1nncnc1N1CC2(CCN(CC3CCC4(CC3)CC3(CC3)C(=O)N4)CC2)C1)C(C)C` (single isomer, unassigned) [Example 44-2] was run?
A: 9.7 nM

Q: Which GI50 does the source give for `CCN(C(=O)c1cc(F)ccc1Oc1cncnc1N1CC2(CCN(CC3CC4CCC3CC43COC(=O)N3)CC2)C1)C(C)C` (single isomer, unassigned) [Example 50-2a] here?
A: 20.5 nM

Q: `CCN(C(=O)c1cc(F)ccc1Oc1cncnc1N1CC2(CCN(CC3CC4CCC3CC43COC(=O)N3)CC2)C1)C(C)C` (single isomer, unassigned) [Example 50-2b] was tested. Which GI50 did it give?
A: 26.4 nM

tested on: MOLM-13; experiment: Cell proliferation inhibition (CellTiter-Glo), MOLM-13; assay type: cell-based; details: Homo sapiens, MOLM-13, 168 h, MOLM-13 cells
Procedure: as §1, §2

Q: For `CCN(C(=O)c1cc(F)ccc1Oc1cncnc1N1CC2(CCN(CC3CC4CCC3CC43COC(=O)N3)CC2)C1)C(C)C` (single isomer, unassigned) [Example 50-1b], which GI50 is on record?
A: 88.9 nM

Q: For `CC(C)N(C(=O)c1cc(F)ccc1Oc1cncnc1N1CC2(CCN(CC3CC4CCC3CC43COC(=O)N3)CC2)C1)C(C)C` (single isomer, unassigned) [Example 51-1], which GI50 is on record?
A: 101 nM

same assay, conditions: MOLM-13 cells, 168 h

Q: How did the GI50 turn out when `CC(C)N(C(=O)c1cc(F)ccc1Oc1nncnc1N1CC2(CCN(CC3CCC4(CC3)CC3(CC3)C(=O)N4)CC2)C1)C(C)C` (single isomer, unassigned) [Example 44-2] was run?
A: 30.4 nM

Q: For `CCN(C(=O)c1cc(F)ccc1Oc1cncnc1N1CC2(CCN(CC3CC4CCC3CC43COC(=O)N3)CC2)C1)C(C)C` (single isomer, unassigned) [Example 50-2a], which GI50 is on record?
A: 125 nM

Q: How did the GI50 turn out when `CCN(C(=O)c1cc(F)ccc1Oc1cncnc1N1CC2(CCN(CC3CC4CCC3CC43COC(=O)N3)CC2)C1)C(C)C` (single isomer, unassigned) [Example 50-2b] was run?
A: 93.3 nM

— US20250074910A1, “MENIN INHIBITOR AND USE THEREOF” (HITGEN INC., priority 2021, published 2025)
